Experimental data taken from patent US5084453A, “1-carboxy-1-vinyloxyimino aminothiazole cephalosporin derivatives” (priority 1988, dated 1992).
Converted amounts (≈) assume the structure as drawn. Where two headings read alike, the source gives them in different places.

How the values were obtained:
Experiment in all cases: in vitro antibacterial activity, agar plate dilution method
Type in all cases: cell-based
E. cloacae Nek 39* = details: Enterobacter cloacae
Procedure: (§1) Now, the in vitro antibacterial activities of the compounds of the present invention against various microorganisms, were measured by the following agar plate dilution method.
(§2) One platinum loopfull of each test microorganism incubated overnight in Mueller Hinton broth, was inoculated to Mueller Hinton agar (MH agaer). Such culture media containing various antibiotics in various concentrations were prepared. After incubation at 37° C. for 16 hours, the minimum inhibitory concentrations (MIC μg/ml) were measured.

Ps. cepacia 23 = details: Burkholderia cepacia, 23; 10^6 CFU/ml; Mueller Hinton agar, 37° C., 16 hours; read-out: MIC
Procedure: as §1, §2

Ps. aeruginosa IFO3445 = details: Pseudomonas aeruginosa
Procedure: as §1, §2

E. cloacae 963 = details: Enterobacter cloacae, 963, 16 h
Procedure: as §1, §2

P. vulgaris HX-19 = details: Proteus vulgaris
Procedure: as §1, §2

M. morganii GN5407* = details: Morganella morganii, GN5407, 16 h
Procedure: as §1, §2

K. pneumoniae No. 42* = details: Klebsiella pneumoniae
Procedure: as §1, §2

E. coli CSH2(RK1)* = details: Escherichia coli, 16 h
Procedure: as §1, §2

Ps. aeruginosa AK 109 = details: Pseudomonas aeruginosa, AK109; 10^6 CFU/ml; Mueller Hinton agar, 37° C., 16 hours; read-out: MIC
Procedure: as §1, §2

S. marcescens IAM 1184 = details: Serratia marcescens
Procedure: as §1, §2

S. marcescens No. 16-2* = details: Serratia marcescens
Procedure: as §1, §2

E. coli GN5482* = details: Escherichia coli
Procedure: as §1, §2

K. oxytoca GN10650* = details: Klebsiella oxytoca, GN10650, 16 h
Procedure: as §1, §2

K. pneumoniae PC1-602 = details: Klebsiella pneumoniae
Procedure: as §1, §2

E. coli NIHJ JC2 = details: Escherichia coli, NIHJJC2; 10^6 CFU/ml; Mueller Hinton agar, 37° C., 16 hours; read-out: MIC
Procedure: as §1, §2

Ps. aeruginosa AKR17 = details: Pseudomonas aeruginosa, AKR17; 10^6 CFU/ml; Mueller Hinton agar, 37° C., 16 hours; read-out: MIC
Procedure: as §1, §2

A. calcoaceticus No. 4 = details: Acinetobacter calcoaceticus, NO.4; 10^6 CFU/ml; Mueller Hinton agar, 37° C., 16 hours; read-out: MIC
Procedure: as §1, §2

P. vulgaris No. 33* = details: Proteus vulgaris
Procedure: as §1, §2

E. coli CSH(RE45)* = details: Escherichia coli; 10^6 CFU/ml; β-Lactamase-producing strain; 37° C., 16 hours; read-out: MIC
Procedure: as §1, §2

S. aureus 209P NIHJ-JC1 = details: Staphylococcus aureus
Procedure: as §1, §2

[1] = 10^6 CFU/ml, β-Lactamase-producing strain, 37° C., 16 hours, read-out: MIC
[2] = IFO3445, 10^6 CFU/ml, Mueller Hinton agar, 37° C., 16 hours, read-out: MIC
[3] = HX19, 10^6 CFU/ml, Mueller Hinton agar, 37° C., 16 hours, read-out: MIC
[4] = 10^6 CFU/ml, Mueller Hinton agar, 37° C., 16 hours, read-out: MIC
[5] = IAM1184, 10^6 CFU/ml, Mueller Hinton agar, 37° C., 16 hours, read-out: MIC
[6] = PC1602, 10^6 CFU/ml, Mueller Hinton agar, 37° C., 16 hours, read-out: MIC

Structure (SMILES)	MIC (Ps. cepacia 23) [µg/mL]	MIC (Ps. aeruginosa IFO3445; [2]) [µg/mL]	MIC (E. cloacae 963) [µg/mL]	MIC (P. vulgaris HX-19; [3]) [µg/mL]	MIC (M. morganii GN5407*) [µg/mL]	MIC (K. pneumoniae No. 42*; 16 h) [µg/mL]	MIC (E. coli CSH2(RK1)*) [µg/mL]	MIC (Ps. aeruginosa AK 109) [µg/mL]	MIC (S. marcescens No. 16-2*; 16 h) [µg/mL]	MIC (E. coli GN5482*; GN5482, 16 h) [µg/mL]	MIC (K. oxytoca GN10650*) [µg/mL]	MIC (K. pneumoniae PC1-602; PC1602, 16 h) [µg/mL]	MIC (E. coli NIHJ JC2) [µg/mL]	MIC (Ps. aeruginosa AKR17) [µg/mL]	MIC (A. calcoaceticus No. 4) [µg/mL]	MIC (P. vulgaris No. 33*; [1]) [µg/mL]	MIC (E. coli CSH(RE45)*) [µg/mL]	MIC (S. aureus 209P NIHJ-JC1; [4]) [µg/mL]	MIC (E. cloacae Nek 39*; 16 h) [µg/mL]	MIC (S. marcescens IAM 1184; [5]) [µg/mL]	other results
C=C(O/N=C(\C(=O)N[C@@H]1C(=O)N2C(C(=O)[O-])=C(C[n+]3ccc(C(=O)O)cc3)CS[C@H]12)c1csc(N)n1)C(=O)O [Example 5, 7β-[2-(2-aminothiazol-4-yl)-2-(1-carboxy-1-vinyloxyimino)acetamido]-3-(4-carboxy-1-pyridinio)methyl-3-cephem-4-carboxylate (syn-isomer)]	12.5 (≈ 21.8 µM)	25 (≈ 43.5 µM)	0.2 (≈ 0.348 µM)	< 0.006	0.025 (≈ 0.0435 µM)	0.39 (≈ 0.679 µM)	0.2 (≈ 0.348 µM)	25 (≈ 43.5 µM)	6.25 (≈ 10.9 µM)	1.56 (≈ 2.72 µM)	0.39 (≈ 0.679 µM)	0.025 (≈ 0.0435 µM)	0.2 (≈ 0.348 µM)	> 100	50 (≈ 87 µM)	0.0125 (≈ 0.0218 µM)	0.05 (≈ 0.087 µM)	12.5 (≈ 21.8 µM)			MIC (E. cloacae Nek 39*; [1]): 3.12 µg/mL (≈ 5.43 µM); MIC (S. marcescens IAM 1184; IAM1184, 16 h): 0.025 µg/mL (≈ 0.0435 µM)
C=C(O/N=C(\C(=O)N[C@@H]1C(=O)N2C(C(=O)[O-])=C(C[n+]3ccc(C(N)=O)cc3)CS[C@H]12)c1csc(N)n1)C(=O)O [Example 6, 7β-[2-(2-aminothiazol-4-yl)-2-(1-carboxy-1-vinyloxyimino)acetamido]-3-(4-carbamoyl-1-pyridinio)methyl-3-cephem-4-carboxylate (syn-isomer)]	3.12 (≈ 5.44 µM)		0.05 (≈ 0.0872 µM)	0.0125 (≈ 0.0218 µM)	0.025 (≈ 0.0436 µM)	0.1 (≈ 0.174 µM)	0.025 (≈ 0.0436 µM)	12.5 (≈ 21.8 µM)		0.39 (≈ 0.68 µM)	0.2 (≈ 0.349 µM)		0.05 (≈ 0.0872 µM)	> 100	12.5 (≈ 21.8 µM)	0.0125 (≈ 0.0218 µM)	0.025 (≈ 0.0436 µM)		1.56 (≈ 2.72 µM)	< 0.006	MIC (Ps. aeruginosa IFO3445; IFO3445, 16 h): 6.25 µg/mL (≈ 10.9 µM); MIC (S. marcescens No. 16-2*; [1]): 3.12 µg/mL (≈ 5.44 µM); MIC (K. pneumoniae PC1-602; [6]): < 0.006 µg/mL; MIC (S. aureus 209P NIHJ-JC1; 16 h): 1.56 µg/mL (≈ 2.72 µM)
C=C(O/N=C(\C(=O)N[C@@H]1C(=O)N2C(C(=O)O)=C(C[n+]3ccc(CS(=O)(=O)[O-])cc3)CS[C@H]12)c1csc(N)n1)C(=O)O [Example 7, 7β-[2-(2-aminothiazol-4-yl)-2-(1-carboxy-1-vinyloxyimino]acetamido]-3-(4-sulfonatomethyl-1-pyridinio)methyl-3-cephem-4-carboxylic acid (syn-isomer)]	12.5 (≈ 20 µM)	3.12 (≈ 4.99 µM)	0.1 (≈ 0.16 µM)	0.0125 (≈ 0.02 µM)	0.025 (≈ 0.04 µM)	0.39 (≈ 0.624 µM)	0.2 (≈ 0.32 µM)	25 (≈ 40 µM)		1.56 (≈ 2.5 µM)	0.39 (≈ 0.624 µM)	0.025 (≈ 0.04 µM)	0.1 (≈ 0.16 µM)	> 100	50 (≈ 80 µM)	0.0125 (≈ 0.02 µM)	0.05 (≈ 0.08 µM)	25 (≈ 40 µM)		0.0125 (≈ 0.02 µM)	MIC (E. cloacae Nek 39*; [1]): 3.12 µg/mL (≈ 4.99 µM); MIC (S. marcescens No. 16-2*; [1]): 3.12 µg/mL (≈ 4.99 µM)
C=C(O/N=C(\C(=O)N[C@@H]1C(=O)N2C(C(=O)O)=C(C[n+]3ccc(CCS(=O)(=O)[O-])cc3)CS[C@H]12)c1csc(N)n1)C(=O)O [Example 8, 7β-[2-(2-aminothiazol-4-yl)-2-(1-carboxy-1-vinyloxyimino)acetamido]-3-[4-(2-sulfonatoethyl)-1-pyridinio]methyl-3-cephem-4-carboxylic acid (syn-isomer)]	12.5 (≈ 19.6 µM)	3.12 (≈ 4.89 µM)	0.2 (≈ 0.313 µM)		0.05 (≈ 0.0783 µM)		0.05 (≈ 0.0783 µM)	12.5 (≈ 19.6 µM)			0.2 (≈ 0.313 µM)	0.025 (≈ 0.0391 µM)	0.05 (≈ 0.0783 µM)	> 100	12.5 (≈ 19.6 µM)		0.05 (≈ 0.0783 µM)	6.25 (≈ 9.79 µM)	0.78 (≈ 1.22 µM)		MIC (P. vulgaris HX-19; HX19, 16 h): 0.025 µg/mL (≈ 0.0391 µM); MIC (K. pneumoniae No. 42*; [1]): 0.39 µg/mL (≈ 0.611 µM); MIC (S. marcescens IAM 1184; IAM1184, 16 h): 0.025 µg/mL (≈ 0.0391 µM); MIC (S. marcescens No. 16-2*; [1]): 3.12 µg/mL (≈ 4.89 µM); MIC (E. coli GN5482*; GN5482, 10^6 CFU/ml, β-Lactamase-producing strain, 37° C., 16 hours, read-out: MIC): 0.39 µg/mL (≈ 0.611 µM); MIC (P. vulgaris No. 33*; 16 h): 0.05 µg/mL (≈ 0.0783 µM)
C=C(O/N=C(\C(=O)N[C@@H]1C(=O)N2C(C(=O)[O-])=C(C[n+]3cccc(N)c3)CS[C@H]12)c1csc(N)n1)C(=O)O [Example 9, sodium 7β-[2-(2-aminothiazol-4-yl)-2-(1-carboxylato-1-vinyloxyimino)acetamido]-3-(3-amino-1-5 pyridinio)methyl 3-cephem-4-carboxylate (syn-isomer)]	3.12		0.05		0.39	0.1	0.025	3.12	1.56	0.2	0.1		0.025	> 100	3.12		0.0125	3.12	0.78	< 0.006	MIC (Ps. aeruginosa IFO3445; IFO3445, 16 h): 0.78 µg/mL; MIC (P. vulgaris HX-19; HX19, 16 h): 0.0125 µg/mL; MIC (K. pneumoniae PC1-602; [6]): < 0.006 µg/mL; MIC (P. vulgaris No. 33*; 16 h): 0.0125 µg/mL
C=C(O/N=C(\C(=O)N[C@@H]1C(=O)N2C(C(=O)[O-])=C(C[n+]3cccc(NC=O)c3)CS[C@H]12)c1csc(N)n1)C(=O)O [Example 10, sodium 7β-[2-(2-aminothiazol-4-yl)-2-(1-carboxylato-1-vinyloxyimino)acetamido]-3-(3-formylamino-1-pyridinio)methyl-3-cephem-4-carboxylate (syn-isomer)]	3.12		0.025	< 0.006	0.0125	0.05	0.0125	3.12	1.56	0.1	0.05		0.0125	> 100	3.12		0.0125		0.39	< 0.006	MIC (Ps. aeruginosa IFO3445; IFO3445, 16 h): 0.78 µg/mL; MIC (K. pneumoniae PC1-602; [6]): < 0.006 µg/mL; MIC (P. vulgaris No. 33*; 16 h): 0.0125 µg/mL; MIC (S. aureus 209P NIHJ-JC1; 16 h): 1.56 µg/mL
